19 compounds from US11667649B2, “Heteroaromatic macrocyclic ether chemotherapeutic agents” (Nuvalent, Inc., priority 2020, dated 2023) can be followed below.

Bounds are passed on as bounds.

For test [1], the target named is T1, ROS1-G2032R kinase domain (Homo sapiens, UniProt P08922, G2032R).
T1 construct: TRKA-wt (1 nM, BPS Bio, 40280) kinase domains in buffer; purchased SignalChem R14-12BG
Nature of the test: Biochemical kinase assay, ROS1-G2032R. The note with it: 2 mM ATP substrate solution, read-out: Ki^app ROS1-G2032R. How it is done:
(§1) First, 250 nL of compound dissolved in DMSO (100-fold of the desired concentration) was dispensed into a 384-well plate. A 12.5 μL substrate solution containing ATP (2 mM) and fluorogenic phosphorylation substrate AQT0101 (26 μM for ALK and ROS1, AssayQuant) or AQT0104 (26 μM for TRKA, AssayQuant) in buffer (50 mM HEPES pH 7.5, 0.01% Brij-35, 0.5 mM EGTA, 10 mM MgCl2) was added and mixed thoroughly. Then, a 12.5 μL kinase solution containing ALK-wt (1.5 nM, Carna, 08-518), ALK ALK L1196M/G1202R (3 nM, SignalChem, A19-12NG), ROS1-wt (0.6 nM, Carna, 08-163), ROS1-G2032R (0.5 nM, SignalChem, R14-12BG), or TRKA-wt (1 nM, BPS Bio, 40280) kinase domains in buffer ([…] HEPES pH 7.5, 0.01% Brij-35, 2% glycerol, 0.4 mg/mL BSA, 0.5 mM EGTA, and 10 mM MgCl2) was added and mixed thoroughly. The plate was sealed and read by SpectraMax Paradigm at λ=485 nm every 2 minutes for 120 minutes at 30° C. Initial rates of reaction (v) were calculated from the change in fluorescence intensity over time during the initial, linear portion of the reaction. Finally, apparent inhibitory constants (Ki^app) were determined from regression of v and I (inhibitor concentration) to Morrison Equation (E=enzyme concentration): […]

A further test concerns the target T2, ALK-wt kinase domain (Homo sapiens, UniProt Q9UM73).
T2 construct: TRKA-wt (1 nM, BPS Bio, 40280) kinase domains in buffer; purchased Carna 08-518
The test can be described thus: Biochemical kinase assay, ALK-wt. The note with it: 2 mM ATP substrate solution, read-out: Ki^app ALK-wt. How it is done:
as §1

The target in test [2] is T3, ALK L1196M/G1202R kinase domain (Homo sapiens, UniProt Q9UM73, G1202R/L1196M).
T3 construct: TRKA-wt (1 nM, BPS Bio, 40280) kinase domains in buffer; purchased SignalChem A19-12NG
Nature of the test: Biochemical kinase assay, ALK L1196M/G1202R. The note with it: 2 mM ATP substrate solution, read-out: Ki^app ALK-L1196M-G1202R. How it is done:
as §1

In the next test the target is T4, ROS1-wt kinase domain (Homo sapiens, UniProt P08922).
T4 construct: TRKA-wt (1 nM, BPS Bio, 40280) kinase domains in buffer; purchased Carna 08-163
The test can be described thus: Biochemical kinase assay, ROS1-wt. The note with it: 2 mM ATP substrate solution, read-out: Ki^app ROS1-wt. The method, then:
as §1

A further test addresses T5, TRKA-wt kinase domain (Homo sapiens, UniProt P04629).
T5 construct: TRKA-wt (1 nM, BPS Bio, 40280) kinase domains in buffer; purchased BPS Bio 40280
Nature of the test: Biochemical kinase assay, TRKA-wt. The note with it: 2 mM ATP substrate solution, read-out: Ki^app TRKA-wt. How it is done: as §1

Test [3] relates to TPM3-NTRK1-wt IC50 / primary target (e.g. CD74-ROS1-wt) IC50, Ba/F3 cells. The test can be described thus: Cell assay TRKA selectivity (TRKA potency divided by primary target potency). Type of test: cell-based. The note with it: for TPM3-NTRK1-wt/CD74-ROS1-G2032R: TRKA selectivity ratio: TPM3-NTRK1-wt IC50 / CD74-ROS1-G2032R IC50, Ba/F3 cells; for TPM3-NTRK1-wt/CD74-ROS1-wt: TRKA selectivity ratio: TPM3-NTRK1-wt IC50 / CD74-ROS1-wt IC50, Ba/F3 cells; for TPM3-NTRK1-wt/EML4-ALK-L1196M-G1202R: TRKA selectivity ratio: TPM3-NTRK1-wt IC50 / EML4-ALK-L1196M-G1202R IC50, Ba/F3 cells; for TPM3-NTRK1-wt/EML4-ALK-wt: TRKA selectivity ratio: TPM3-NTRK1-wt IC50 / EML4-ALK-wt IC50, Ba/F3 cells. The gist of the method:
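IL-3-independent Ba/F3 lines stably expressing TPM3-TRKA or the primary fusion (e.g. CD74-ROS1 wt) were exposed to 3-fold compound dilutions for 72 h. Viability was read by CellTiter-Glo luminescence, with IC50 from four-parameter logistic fit. Selectivity is TPM3-NTRK1 IC50 divided by primary-target IC50, binned A (>30-fold) to D (<1).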

With `CCn1ncc2c1-c1cnc(N)c(c1)O[C@H](C)c1cc(F)ccc1-c1nn(C)cc1C2` [Compound 1], the Ki (in test [1]; at ALK-wt kinase domain; in test [2]; on ROS1-wt kinase domain; at TRKA-wt kinase domain) was less than 50 nM throughout.

For the compound `CC1Oc2cc(cnc2N)-c2c(cnn2C)Cc2cnn(C)c2-c2ccc(F)cc21` (stereo not shown) [Compound 2], the Ki in test [1] is less than 50 nM; on ALK-wt kinase domain it was less than 50 nM; in test [2], 50 to 500 nM; on ROS1-wt kinase domain, less than 50 nM; at TRKA-wt kinase domain, 50 to 500 nM.

Turning to `CCn1ncc2c1-c1cnc(N)c(c1)O[C@H](C)c1cc(F)ccc1-c1ncccc1C2` [Compound 3], the Ki (in test [1]; at ALK-wt kinase domain; in test [2]; at ROS1-wt kinase domain; at TRKA-wt kinase domain) was less than 50 nM in each case.

`CCn1ncc2c1-c1ccc(F)cc1[C@@H](C)Oc1cc(cnc1N)-c1c(cnn1C)C2` [Compound 4]: the Ki (in test [1]; on ALK-wt kinase domain; in test [2]; at ROS1-wt kinase domain; on TRKA-wt kinase domain) was less than 50 nM in each case.

Consider `C[C@H]1Oc2cc(cnc2N)-c2c(cnn2C2CCC2)Cc2cnn(C)c2-c2ccc(F)cc21` [Compound 5], for which the Ki in test [1] was less than 50 nM; on ALK-wt kinase domain, less than 50 nM; in test [2] it was less than 50 nM; on ROS1-wt kinase domain it was less than 50 nM; on TRKA-wt kinase domain, more than 500 nM.

In the case of `CCc1c(C#N)nn2c1-c1cnc(N)c(c1)O[C@H](C)c1cc(F)ccc1-c1nn(C)cc1C2` [Compound 6], the Ki in test [1] is less than 50 nM; at ALK-wt kinase domain, less than 50 nM; in test [2], less than 50 nM; on ROS1-wt kinase domain it was less than 50 nM; on TRKA-wt kinase domain, 50 to 500 nM.

Turning to `C[C@H]1Oc2cc(cnc2N)-c2c(C#N)cnn2Cc2cn(C)nc2-c2ccc(F)cc21` [Compound 9], the Ki in test [1] is less than 50 nM; on ALK-wt kinase domain it was less than 50 nM; in test [2], less than 50 nM; on ROS1-wt kinase domain it was less than 50 nM; at TRKA-wt kinase domain, more than 500 nM.

As to `C[C@H]1Oc2cc(cnc2N)-c2c(C#N)ncn2Cc2cnccc2-c2ccc(F)cc21` [Compound 10], the Ki in test [1] was less than 50 nM; on ALK-wt kinase domain, less than 50 nM; in test [2] it was less than 50 nM; on ROS1-wt kinase domain it was less than 50 nM; at TRKA-wt kinase domain, more than 500 nM.

On to `C[C@H]1Oc2cc(cnc2N)-c2c(C#N)ncn2Cc2ccncc2-c2ccc(F)cc21` [Compound 11], for which the Ki is less than 50 nM in test [1]; less than 50 nM at ALK-wt kinase domain; 50 to 500 nM in test [2]; less than 50 nM on ROS1-wt kinase domain; more than 500 nM on TRKA-wt kinase domain.

Take `C[C@H]1Oc2cc(cnc2N)-c2c(C#N)ncn2Cc2cccnc2-c2ccc(F)cc21` [Compound 12]: the Ki in test [1] is less than 50 nM; at ALK-wt kinase domain it was less than 50 nM; in test [2], less than 50 nM; at ROS1-wt kinase domain, less than 50 nM; on TRKA-wt kinase domain, more than 500 nM.

On to `C[C@H]1Oc2cc(cnc2N)-c2c(C#N)ncn2Cc2cn(C)nc2-c2ccc(F)cc21` [Compound 13], for which the Ki in test [1] is less than 50 nM; at ALK-wt kinase domain it was less than 50 nM; in test [2], less than 50 nM; on ROS1-wt kinase domain, less than 50 nM; on TRKA-wt kinase domain it was more than 500 nM.

In the case of `C[C@H]1Oc2cc(cnc2N)-c2c(C#N)cnn2Cc2cccnc2-c2ccc(F)cc21` [Compound 14], the Ki was less than 50 nM in test [1]; less than 50 nM at ALK-wt kinase domain; less than 50 nM in test [2]; less than 50 nM at ROS1-wt kinase domain; 50 to 500 nM on TRKA-wt kinase domain.

For `CCn1ncc2c1-c1cnc(N)c(c1)O[C@H](C)c1cc(F)ccc1-n1ncc(F)c1C2` [Compound 46], the Ki (in test [1]; on ALK-wt kinase domain; in test [2]; on TRKA-wt kinase domain) was less than 50 nM throughout.

`C[C@H]1Oc2cc(cnc2N)-c2c(cnn2CC2(C)CC2)Cc2cn(C)nc2-c2ccc(F)cc21` [Compound 159]: the Ki on ALK-wt kinase domain was less than 50 nM; in test [2] it was less than 50 nM; at TRKA-wt kinase domain it was more than 500 nM.

`CCc1nn(C)c2c1-c1cnc(N)c(c1)O[C@H](C)c1cc(F)ccc1-c1nc(C)sc1C2` [Compound 173]: the Ki (in test [2]; on TRKA-wt kinase domain) was less than 50 nM each time.

Turning to `C[C@H]1Oc2cc(cnc2N)-c2c(CC3CC3)nn(C)c2Cc2cn(C)nc2-c2ccc(F)cc21` [Example 178, (19R)-3-(cyclopropylmethyl)-16-fluoro-5,10,19-trimethyl-20-oxa-4,5,10,11,23-pentaazapentacyclo[19.3.1.0^2,^6.0^8,^12.0^13,^18]pentacosa-1(24),2(6),3,8,11,13,15,17,21(25),22-decaen-22-amine], in test [3], the TPM3-NTRK1-wt/CD74-ROS1-G2032R entry is on record as “A (bin A for very high selectivity, ratio>30-fold)”; the TPM3-NTRK1-wt/CD74-ROS1-wt entry is “A (bin A for very high selectivity, ratio>30-fold)”; the TPM3-NTRK1-wt/EML4-ALK-L1196M-G1202R result is on record as “A (bin A for very high selectivity, ratio>30-fold)”; the TPM3-NTRK1-wt/EML4-ALK-wt result was “A (bin A for very high selectivity, ratio>30-fold)”.

With `C[C@H]1Oc2cc(cnc2N)-c2c(nn(C)c2CC2CC2)Cc2cn(C)nc2-c2ccc(F)cc21` [Example 179, (19R)-3-(cyclopropylmethyl)-16-fluoro-4,10,19-trimethyl-20-oxa-4,5,10,11,23-pentaazapentacyclo[19.3.1.0^2,^6.0^8,^12.0^13,^18]pentacosa-1(24),2,5,8,11,13,15,17,21(25),22-decaen-22-amine], in test [3], the TPM3-NTRK1-wt/CD74-ROS1-G2032R entry is reported as “A (bin A for very high selectivity, ratio>30-fold)”; the TPM3-NTRK1-wt/CD74-ROS1-wt entry is reported as “A (bin A for very high selectivity, ratio>30-fold)”; the TPM3-NTRK1-wt/EML4-ALK-L1196M-G1202R result is recorded as “A (bin A for very high selectivity, ratio>30-fold)”; the TPM3-NTRK1-wt/EML4-ALK-wt entry is given as “A (bin A for very high selectivity, ratio>30-fold)”.

In the case of `C[C@H]1Oc2cc(cnc2N)-c2c(CC(F)F)nn(C)c2Cc2cc(C(F)F)nn2-c2ccc(F)cc21` [Example 180, (19R)-3-(2,2-difluoroethyl)-10-(difluoromethyl)-16-fluoro-5,19-dimethyl-20-oxa-4,5,11,12,23-pentaazapentacyclo[19.3.1.0^2,^6.0^8,^12.0^13,^18]pentacosa-1(24),2(6),3,8,10,13,15,17,21(25),22-decaen-22-amine], in test [3], the TPM3-NTRK1-wt/CD74-ROS1-G2032R result is on record as “A (bin A for very high selectivity, ratio>30-fold)”; the TPM3-NTRK1-wt/CD74-ROS1-wt result is reported as “A (bin A for very high selectivity, ratio>30-fold)”; the TPM3-NTRK1-wt/EML4-ALK-L1196M-G1202R entry is on record as “C (bin C for moderate selectivity, ratio≥1)”; the TPM3-NTRK1-wt/EML4-ALK-wt entry is on record as “A (bin A for very high selectivity, ratio>30-fold)”.

With `CCn1nc(OC)c2c1-c1cnc(N)c(c1)O[C@H](C)c1cc(F)ccc1-c1nn(C)cc1C2` [Example 181, (19R)-3-ethyl-16-fluoro-5-methoxy-10,19-dimethyl-20-oxa-3,4,10,11,23-pentaazapentacyclo[19.3.1.0^2,^6.0^8,^12.0^13,^18]pentacosa-1(24),2(6),4,8,11,13,15,17,21(25),22-decaen-22-amine], in test [3], the TPM3-NTRK1-wt/CD74-ROS1-G2032R result is on record as “A (bin A for very high selectivity, ratio>30-fold)”; the TPM3-NTRK1-wt/CD74-ROS1-wt entry was “A (bin A for very high selectivity, ratio>30-fold)”; the TPM3-NTRK1-wt/EML4-ALK-L1196M-G1202R entry is “C (bin C for moderate selectivity, ratio≥1)”; the TPM3-NTRK1-wt/EML4-ALK-wt entry was “A (bin A for very high selectivity, ratio>30-fold)”.
